Results from EP1072948B1, “Thermally processed image recording material” (FUJIFILM Corporation, priority 1999, dated 2001).

What was measured:
[1] = Example 1: image storage stability 1 (developed material stored in the dark); conditions: 24 hours, relative humidity 50%
Procedure: (§1) After each thermally processed image recording material was light-exposed by a laser sensitometer (details are given below), the thermally processed image recording material was treated at 118°C for 5 seconds and then treated at 122°C for 16 seconds (heat development).
(§2) The evaluation of the image obtained was performed by using a Macbeth TD904 densitometer (visible density). The measurement results were evaluated as Dmin, sensitivity (evaluated by a relative value of a reciprocal of a ratio of exposure amounts giving a density higher than Dmin by 1.0, and the sensitivity of the thermally processed image recording material of Experiment No. 1 shown in Table 1 below was defined as 100), Dmax, and gradation (contrast) (fresh photographic properties). The contrast was expressed by a gradient of a straight line connecting the points at the densities from which the value for Dmin was subtracted, 0.5 and 1.5, with the abscissa being a logarithm of the exposure amount.

[2] = Example 1: image storage stability 2 (developed material stored under light irradiation); conditions: 24 hours, 10,000 luces, relative humidity 50%
Procedure: as §1, §2

[3] = Example 2: image storage stability 1 (developed material stored in the dark); conditions: 24 hours, relative humidity 50%
Procedure: (§3) Each light-exposed thermally processed image recording material was heat-developed by using a heat-developing apparatus as shown in Fig.1. The roller surface material of the heat development section was composed of silicone rubber, and the flat surface consisted of Teflon non-woven fabric. The heat development was performed at a transportation linear speed of 20 mm/second and a temperature of 90-110°C in the preheating section for 15 seconds (driving units of the preheating section and the heat development section were independent from each other, and speed difference as to the heat development section was adjusted to -0.5% to -1%), and 120°C for 20 seconds in the heat development section, and for 15 seconds in the gradual cooling section. The temperature precision as for the transverse direction was ±1°C.
as §2, with “0.3” for “0.5”

[4] = Example 2: image storage stability 2 (developed material stored under light irradiation); conditions: 24 hours, 10,000 luces, relative humidity 50%
Procedure: as §3
as §2, with “0.3” for “0.5”

SMILES | Image storage stability-1 (stored in dark, 60°C, 50%) Dmax ([1]; Table 1, 1.6×10^-1 mol/mol-Ag) | Image storage stability-1 (stored in dark, 60°C, 50%) Dmin ([1]; Table 1, 1.6×10^-1 mol/mol-Ag) | Image storage stability-2 (stored in light, 40°C, 50%) Dmax ([2]; Table 1, 1.6×10^-1 mol/mol-Ag) | Image storage stability-2 (stored in light, 40°C, 50%) Dmin ([2]; Table 1, 1.6×10^-1 mol/mol-Ag) | Image storage stability-1 (stored in dark, 60°C, 50%) Dmax ([3]; Table 3, 8×10^-2 mol/mol-Ag) | Image storage stability-1 (stored in dark, 60°C, 50%) Dmin ([3]; Table 3, 8×10^-2 mol/mol-Ag) | Image storage stability-2 (stored in light, 40°C, 50%) Dmax ([4]; Table 3, 8×10^-2 mol/mol-Ag) | Image storage stability-2 (stored in light, 40°C, 50%) Dmin ([4]; Table 3, 8×10^-2 mol/mol-Ag) | Image storage stability-1 (stored in dark, 60°C, 50%) Dmax ([1]; Table 2, 1.6×10^-1 mol/mol-Ag) | Image storage stability-1 (stored in dark, 60°C, 50%) Dmin ([1]; Table 2, 1.6×10^-1 mol/mol-Ag) | Image storage stability-2 (stored in light, 40°C, 50%) Dmax ([2]; Table 2, 1.6×10^-1 mol/mol-Ag) | Image storage stability-2 (stored in light, 40°C, 50%) Dmin ([2]; Table 2, 1.6×10^-1 mol/mol-Ag) | Image storage stability-1 (stored in dark, 60°C, 50%) Dmax ([3]; Table 4, 8×10^-2 mol/mol-Ag) | Image storage stability-1 (stored in dark, 60°C, 50%) Dmin ([3]; Table 4, 8×10^-2 mol/mol-Ag) | Image storage stability-2 (stored in light, 40°C, 50%) Dmax ([4]; Table 4, 8×10^-2 mol/mol-Ag) | Image storage stability-2 (stored in light, 40°C, 50%) Dmin ([4]; Table 4, 8×10^-2 mol/mol-Ag)
CCCCCCOCCN(CC)C(=O)c1cccc(S(=O)(=O)C(Br)(Br)Br)c1 [Comparative Compound 1] | 2.1 | 0.17 | 2.5 | 0.17 | 2.7 | 0.08 | 3.2 | 0.08 |  |  |  |  |  |  |  | 
CCNC(=O)c1ccccc1S(=O)(=O)C(Br)(Br)Br [Comparative Compound 3] | 2.9 | 0.41 | 3.0 | 0.25 | 4.1 | 0.35 | 4.1 | 0.15 |  |  |  |  |  |  |  | 
CCCCCCCCCCCCCCCCNC(=O)c1cccc(S(=O)(=O)C(Br)(Br)Br)c1 [Comparative Compound (1)] |  |  |  |  |  |  |  |  | 2.8 | 0.54 | 2.8 | 0.43 | 3.6 | 0.35 | 3.4 | 0.22
O=C(c1cccc(S(=O)(=O)C(Br)(Br)Br)c1)N1CCCC1 [Comparative Compound (3)] |  |  |  |  |  |  |  |  | 2.9 | 0.42 | 3.0 | 0.40 | 3.6 | 0.44 | 3.6 | 0.23
CCCCCCCCN(CCCCCCCC)S(=O)(=O)c1ccc(S(=O)(=O)C(Br)(Br)Br)cc1 [Comparative Compound (4)] |  |  |  |  |  |  |  |  | 2.8 | 0.59 | 2.9 | 0.47 | 3.7 | 0.39 | 3.6 | 0.25
CCCCCCCCCCCCN(CCCCCCCCCCCC)C(=O)c1cc(S(C)(=O)=O)ccc1S(=O)(=O)C(Br)(Br)Br [Comparative Compound (5)] |  |  |  |  |  |  |  |  | 2.8 | 0.60 | 2.9 | 0.50 | 3.7 | 0.43 | 3.7 | 0.29
CCOCCNC(=O)c1cccc(S(=O)(=O)C(Br)(Br)Br)c1 [P'-1] |  |  |  |  |  |  |  |  | 3.0 | 0.18 | 3.0 | 0.17 | 3.9 | 0.09 | 4.0 | 0.08
CCCCOCCCNC(=O)c1cccc(S(=O)(=O)C(Br)(Br)Br)c1 [P'-15] |  |  |  |  |  |  |  |  | 3.0 | 0.18 | 3.0 | 0.17 | 3.9 | 0.09 | 4.0 | 0.07
CCC(CC)NC(=O)c1cccc(S(=O)(=O)C(Br)(Br)Br)c1 [P'-18] |  |  |  |  |  |  |  |  | 3.0 | 0.17 | 3.0 | 0.17 | 3.9 | 0.09 | 4.0 | 0.08
CCCC(C)NC(=O)c1cccc(S(=O)(=O)C(Br)(Br)Br)c1 (centres unmarked) [P'-20] |  |  |  |  |  |  |  |  | 3.0 | 0.17 | 3.0 | 0.17 | 3.9 | 0.09 | 4.0 | 0.07
COCCCNC(=O)c1cccc(S(=O)(=O)C(Br)(Br)Br)c1 [P-11] | 2.9 | 0.17 | 3.0 | 0.17 | 3.9 | 0.09 | 4.0 | 0.08 |  |  |  |  |  |  |  | 
CCCCNS(=O)(=O)c1cccc(S(=O)(=O)C(Br)(Br)Br)c1 [P-18] | 3.0 | 0.20 | 3.0 | 0.20 |  |  |  |  |  |  |  |  |  |  |  | 
